From patent US20110230481A2, “DERIVATIVES OF TETRABROMOBENZIMIDAZOLE, A PROCESS FOR THE PREPARATION THEREOF, A PHARMACEUTICAL COMPOSITION COMPRISING THE SAME, A METHOD OF USING THE SAME, A METHOD FOR MODULATING OR REGULATING SERINE/THREONINE KINASES, AND SERINE/THREONINE KINASES MODULATING AGENT” (SELVITA S.A., priority 2009, published 2011)

Columns and labels:
Assay in all cases: KINOMEscan Max
Format in all cases: binding
EGFR(G719C) = molecular target: T1, EGFR(G719C) (Homo sapiens, UniProt P00533, G719C); settings: 1 μM
T1 construct: purchased Ambit (KINOMEscan Max panel service)
In short: (§1)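 Competition binding assay: test compound competes with an immobilized, active-site directed ligand for DNA-tagged kinase. Kinase captured on the ligand is quantified by qPCR of the DNA tag.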

YES = molecular target: T2, YES (Homo sapiens, UniProt P07947)
T2 construct: purchased Ambit Kinomescan (contract screening service)
T2 sequence (P07947 whole entry): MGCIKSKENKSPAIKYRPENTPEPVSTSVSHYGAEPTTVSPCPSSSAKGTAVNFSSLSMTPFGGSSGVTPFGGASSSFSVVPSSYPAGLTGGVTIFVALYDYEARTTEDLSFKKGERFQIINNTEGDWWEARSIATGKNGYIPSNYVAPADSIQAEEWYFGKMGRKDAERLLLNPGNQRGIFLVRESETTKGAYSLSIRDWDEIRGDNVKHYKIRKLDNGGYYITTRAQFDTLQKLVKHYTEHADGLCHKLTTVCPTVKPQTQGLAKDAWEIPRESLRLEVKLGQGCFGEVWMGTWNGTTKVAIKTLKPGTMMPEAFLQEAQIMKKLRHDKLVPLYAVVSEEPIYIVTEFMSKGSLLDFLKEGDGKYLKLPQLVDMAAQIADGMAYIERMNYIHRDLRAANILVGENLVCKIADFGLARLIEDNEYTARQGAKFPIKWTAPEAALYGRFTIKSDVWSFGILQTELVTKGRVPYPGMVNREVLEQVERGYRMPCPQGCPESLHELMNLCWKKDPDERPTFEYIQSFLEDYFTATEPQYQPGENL
In short: as §1

CDKL2 = molecular target: T3, CDKL2 (Homo sapiens, UniProt Q92772)
T3 construct: purchased Ambit (KINOMEscan Max service)
In short: as §1

[1] = molecular target: T4, ABL1(F317L)-nonphosphorylated (Homo sapiens, UniProt P00519, F317L)
T4 construct: purchased Ambit (KINOMEscan Max service)
In short: as §1

PKN1 = molecular target: T5, PKN1 (Homo sapiens, UniProt Q16512)
T5 construct: DNA tag (qPCR read-out)
In short: as §1

CDK8 = molecular target: T6, CDK8 (Homo sapiens, UniProt P49336); settings: 1 μM
T6 construct: purchased Ambit (KINOMEscan Max service)
In short: as §1

BRSK2 = molecular target: T7, BRSK2 (Homo sapiens, UniProt Q8IWQ3)
T7 construct: DNA tag (qPCR read-out)
T7 sequence (Q8IWQ3 whole entry): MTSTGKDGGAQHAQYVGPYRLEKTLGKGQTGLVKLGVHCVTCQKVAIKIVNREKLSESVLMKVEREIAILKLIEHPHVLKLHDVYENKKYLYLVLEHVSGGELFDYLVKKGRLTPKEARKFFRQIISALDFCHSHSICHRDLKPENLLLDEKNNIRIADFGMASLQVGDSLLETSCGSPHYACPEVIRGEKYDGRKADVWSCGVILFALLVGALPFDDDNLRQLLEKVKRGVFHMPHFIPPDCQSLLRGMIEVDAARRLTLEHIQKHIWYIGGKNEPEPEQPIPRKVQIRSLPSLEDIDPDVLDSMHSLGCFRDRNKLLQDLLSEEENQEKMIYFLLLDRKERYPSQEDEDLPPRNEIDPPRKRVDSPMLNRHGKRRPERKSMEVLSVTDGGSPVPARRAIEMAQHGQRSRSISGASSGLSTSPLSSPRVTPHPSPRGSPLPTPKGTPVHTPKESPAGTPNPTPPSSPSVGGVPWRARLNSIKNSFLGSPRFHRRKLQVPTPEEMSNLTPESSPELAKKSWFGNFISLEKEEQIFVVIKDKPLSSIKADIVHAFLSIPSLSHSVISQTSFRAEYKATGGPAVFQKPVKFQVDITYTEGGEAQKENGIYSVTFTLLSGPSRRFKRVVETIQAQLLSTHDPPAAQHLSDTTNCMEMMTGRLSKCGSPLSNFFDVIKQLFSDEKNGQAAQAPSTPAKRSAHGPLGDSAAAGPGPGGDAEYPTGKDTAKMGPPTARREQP
In short: as §1

BMPR2 = BMPR2 (Homo sapiens, UniProt Q13873); settings: 1 μM
Chain of BMPR2 (Q13873 27-1038): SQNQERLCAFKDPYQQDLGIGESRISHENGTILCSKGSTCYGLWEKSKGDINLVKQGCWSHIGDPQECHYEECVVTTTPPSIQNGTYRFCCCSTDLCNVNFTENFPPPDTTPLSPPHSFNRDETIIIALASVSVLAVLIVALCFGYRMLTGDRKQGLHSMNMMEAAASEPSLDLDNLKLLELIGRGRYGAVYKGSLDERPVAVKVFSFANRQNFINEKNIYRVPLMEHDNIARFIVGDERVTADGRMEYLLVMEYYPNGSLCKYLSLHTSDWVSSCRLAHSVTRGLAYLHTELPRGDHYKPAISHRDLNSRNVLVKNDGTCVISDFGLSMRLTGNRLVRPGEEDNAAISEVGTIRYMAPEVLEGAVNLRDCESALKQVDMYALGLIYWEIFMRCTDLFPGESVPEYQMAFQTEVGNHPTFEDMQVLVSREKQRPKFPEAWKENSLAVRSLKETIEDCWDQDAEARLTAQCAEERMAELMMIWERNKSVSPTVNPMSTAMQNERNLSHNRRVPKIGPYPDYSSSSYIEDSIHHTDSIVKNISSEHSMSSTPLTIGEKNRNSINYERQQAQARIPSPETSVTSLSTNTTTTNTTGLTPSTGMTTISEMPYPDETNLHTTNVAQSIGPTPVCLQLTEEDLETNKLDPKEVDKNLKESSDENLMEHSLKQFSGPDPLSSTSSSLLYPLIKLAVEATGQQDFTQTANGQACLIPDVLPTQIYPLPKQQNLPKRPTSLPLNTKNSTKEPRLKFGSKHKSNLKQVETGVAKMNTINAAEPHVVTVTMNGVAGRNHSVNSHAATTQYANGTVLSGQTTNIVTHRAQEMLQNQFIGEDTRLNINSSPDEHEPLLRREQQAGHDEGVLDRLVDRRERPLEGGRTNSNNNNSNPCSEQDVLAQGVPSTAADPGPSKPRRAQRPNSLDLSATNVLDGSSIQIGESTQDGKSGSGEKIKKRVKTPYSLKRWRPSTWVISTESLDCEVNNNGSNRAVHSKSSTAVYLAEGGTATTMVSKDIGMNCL
In short: as §1

p38-gamma = p38-gamma (Homo sapiens, UniProt P53778)
In short: as §1

SRMS = molecular target: T8, SRMS (Homo sapiens, UniProt Q9H3Y6)
T8 construct: DNA tag (qPCR read-out)
T8 sequence (Q9H3Y6 whole entry): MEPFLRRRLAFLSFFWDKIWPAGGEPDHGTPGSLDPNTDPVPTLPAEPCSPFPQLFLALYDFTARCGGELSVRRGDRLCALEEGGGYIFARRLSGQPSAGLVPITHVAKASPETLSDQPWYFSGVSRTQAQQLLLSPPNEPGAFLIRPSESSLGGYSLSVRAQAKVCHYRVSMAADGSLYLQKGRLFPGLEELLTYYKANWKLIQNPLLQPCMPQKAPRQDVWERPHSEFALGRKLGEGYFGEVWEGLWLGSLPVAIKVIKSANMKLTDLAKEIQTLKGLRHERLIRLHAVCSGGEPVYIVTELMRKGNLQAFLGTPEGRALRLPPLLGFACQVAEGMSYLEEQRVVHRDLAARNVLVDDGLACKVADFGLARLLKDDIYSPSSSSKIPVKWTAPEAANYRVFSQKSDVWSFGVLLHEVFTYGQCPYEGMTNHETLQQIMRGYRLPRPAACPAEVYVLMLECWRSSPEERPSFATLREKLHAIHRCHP
In short: as §1

[2] = molecular target: T9, RSK4(Kin.Dom.2-C-terminal) (Homo sapiens, UniProt Q9UK32); settings: 1 μM
T9 construct: RSK4(Kin.Dom.2-C-terminal); DNA tag (qPCR read-out)
In short: as §1

SYK = molecular target: T10, SYK (Homo sapiens, UniProt P43405); settings: 1 μM
T10 construct: DNA tag (qPCR read-out)
In short: as §1

PRKD1 = molecular target: T11, PRKD1 (Homo sapiens, UniProt Q15139)
T11 construct: DNA tag (qPCR read-out)
In short: as §1

NIM1 = NIM1 (Homo sapiens, UniProt Q8IY84)
In short: as §1

[3] = molecular target: ABL1(Y253F)-phosphorylated (Homo sapiens, UniProt P00519, Y253F)
In short: as §1

KIT(A829P) = molecular target: T12, KIT(A829P) (Homo sapiens, UniProt P10721, A829P)
T12 construct: purchased Ambit Kinomescan (contract panel)
In short: as §1

TNIK = molecular target: T13, TNIK (Homo sapiens, UniProt Q9UKE5)
T13 construct: purchased Ambit Kinomescan (contract screening service)
In short: as §1

RAF1 = molecular target: T14, RAF1 (Homo sapiens, UniProt P04049)
T14 construct: DNA tag (qPCR read-out)
In short: as §1

MST3 = MST3 (Homo sapiens, UniProt Q9Y6E0); settings: 1 μM
Chain of MST3 (Q9Y6E0 whole entry): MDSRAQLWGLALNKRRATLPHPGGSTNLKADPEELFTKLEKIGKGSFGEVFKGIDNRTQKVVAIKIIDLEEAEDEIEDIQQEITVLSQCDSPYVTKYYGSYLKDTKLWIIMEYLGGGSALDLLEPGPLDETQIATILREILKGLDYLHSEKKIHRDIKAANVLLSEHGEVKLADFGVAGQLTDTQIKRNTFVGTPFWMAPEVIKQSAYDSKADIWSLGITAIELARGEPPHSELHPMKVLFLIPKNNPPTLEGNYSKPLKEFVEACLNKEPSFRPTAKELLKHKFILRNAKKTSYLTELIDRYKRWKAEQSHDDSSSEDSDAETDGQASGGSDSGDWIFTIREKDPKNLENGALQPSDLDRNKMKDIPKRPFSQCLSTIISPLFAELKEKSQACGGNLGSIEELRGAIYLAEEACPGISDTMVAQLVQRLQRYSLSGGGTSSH
In short: as §1

EGFR(L858R.T790M) = molecular target: T15, EGFR(L858R.T790M) (Homo sapiens, UniProt P00533, L858R/T790M); settings: 1 μM
T15 construct: purchased Ambit (KINOMEscan Max panel service)
T15 sequence (P00533 25-1210 T790M/L858R): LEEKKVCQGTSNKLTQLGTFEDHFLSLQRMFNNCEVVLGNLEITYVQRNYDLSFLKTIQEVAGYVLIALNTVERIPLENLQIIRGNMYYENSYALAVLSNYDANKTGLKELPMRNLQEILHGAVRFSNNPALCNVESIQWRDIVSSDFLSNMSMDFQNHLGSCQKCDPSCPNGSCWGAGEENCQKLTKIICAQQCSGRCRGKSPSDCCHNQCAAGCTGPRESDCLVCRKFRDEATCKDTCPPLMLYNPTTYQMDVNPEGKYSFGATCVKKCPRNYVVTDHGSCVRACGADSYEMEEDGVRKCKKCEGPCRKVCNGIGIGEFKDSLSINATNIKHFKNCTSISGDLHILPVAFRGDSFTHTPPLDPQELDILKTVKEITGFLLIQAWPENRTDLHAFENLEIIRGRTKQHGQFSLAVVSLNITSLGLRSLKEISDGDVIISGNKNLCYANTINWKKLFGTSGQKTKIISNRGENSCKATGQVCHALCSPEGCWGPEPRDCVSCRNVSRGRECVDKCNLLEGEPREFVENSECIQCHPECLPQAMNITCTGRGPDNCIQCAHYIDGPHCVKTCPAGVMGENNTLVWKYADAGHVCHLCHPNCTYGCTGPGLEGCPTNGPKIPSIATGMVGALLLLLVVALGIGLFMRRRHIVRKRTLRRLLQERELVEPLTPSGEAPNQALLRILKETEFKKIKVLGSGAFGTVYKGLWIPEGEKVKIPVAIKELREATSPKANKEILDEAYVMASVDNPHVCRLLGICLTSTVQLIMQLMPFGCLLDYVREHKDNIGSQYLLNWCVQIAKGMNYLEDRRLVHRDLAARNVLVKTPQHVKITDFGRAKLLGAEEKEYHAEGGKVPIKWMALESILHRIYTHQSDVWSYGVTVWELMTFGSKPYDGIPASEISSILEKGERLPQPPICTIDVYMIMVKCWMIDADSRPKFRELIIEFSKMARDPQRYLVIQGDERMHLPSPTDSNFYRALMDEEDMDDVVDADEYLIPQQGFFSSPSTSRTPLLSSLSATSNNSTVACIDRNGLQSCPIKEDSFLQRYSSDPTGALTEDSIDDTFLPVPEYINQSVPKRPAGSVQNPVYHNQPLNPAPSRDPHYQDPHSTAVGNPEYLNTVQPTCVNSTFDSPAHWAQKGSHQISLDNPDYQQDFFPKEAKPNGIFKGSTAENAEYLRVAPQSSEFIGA
In short: as §1

MAP3K3 = molecular target: T16, MAP3K3 (Homo sapiens, UniProt Q99759)
T16 construct: purchased Ambit Kinomescan (contract panel)
T16 sequence (Q99759 whole entry): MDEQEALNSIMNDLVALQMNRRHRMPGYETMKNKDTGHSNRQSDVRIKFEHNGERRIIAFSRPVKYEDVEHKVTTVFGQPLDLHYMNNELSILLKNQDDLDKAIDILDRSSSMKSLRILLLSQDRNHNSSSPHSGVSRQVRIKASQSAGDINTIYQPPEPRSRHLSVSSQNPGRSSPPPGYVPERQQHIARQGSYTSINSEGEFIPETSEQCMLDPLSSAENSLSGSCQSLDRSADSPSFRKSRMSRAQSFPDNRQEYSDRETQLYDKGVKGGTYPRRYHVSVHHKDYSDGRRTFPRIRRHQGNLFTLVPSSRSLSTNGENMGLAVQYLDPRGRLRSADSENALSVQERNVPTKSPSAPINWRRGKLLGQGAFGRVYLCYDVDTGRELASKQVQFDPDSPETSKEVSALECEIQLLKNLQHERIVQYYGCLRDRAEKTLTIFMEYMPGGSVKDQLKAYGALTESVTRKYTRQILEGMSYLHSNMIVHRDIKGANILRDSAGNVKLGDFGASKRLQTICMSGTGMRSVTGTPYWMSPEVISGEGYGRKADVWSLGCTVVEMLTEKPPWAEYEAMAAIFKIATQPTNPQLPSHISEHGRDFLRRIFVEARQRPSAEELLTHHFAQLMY
In short: as §1

VRK2 = VRK2 (Homo sapiens, UniProt Q86Y07)
In short: as §1

ACVR2B = molecular target: T17, ACVR2B (Homo sapiens, UniProt Q13705); settings: 1 μM
T17 construct: DNA tag (qPCR label); purchased Ambit Kinomescan (contract screening)
In short: as §1

TAOK2 = molecular target: T18, TAOK2 (Homo sapiens, UniProt Q9UL54)
T18 construct: DNA tag (qPCR read-out)
In short: as §1

[4] = molecular target: ABL1(E255K)-phosphorylated) (Homo sapiens, UniProt P00519, E255K)
In short: as §1

PKN2 = molecular target: T19, PKN2 (Homo sapiens, UniProt Q16513)
T19 construct: purchased Ambit (KINOMEscan Max service)
In short: as §1

PKMYT1 = PKMYT1 (Homo sapiens, UniProt Q99640); settings: 1 μM
In short: as §1

CAMK1D = molecular target: T20, CAMK1D (Homo sapiens, UniProt Q8IU85)
T20 construct: DNA tag (qPCR label); purchased Ambit Kinomescan (contract screening)
In short: as §1

PRKG1 = molecular target: T21, PRKG1 (Homo sapiens, UniProt Q13976)
T21 construct: DNA tag (qPCR read-out)
In short: as §1

With `NCCCNc1nc2c(Br)c(Br)c(Br)c(Br)c2[nH]1` [Compound 11, N-(3-aminopropyl)-4,5,6,7-tetrabromo-1H-benzo[d]imidazol-2-amine] the “% binding” value (EGFR(G719C)) was 100%, the remaining binding at 1 µM (YES) was 100% and the remaining binding at 1 µM (CDKL2) was 85%. For the same molecule, the remaining binding at 1 µM [1] was 67%, the remaining binding at 1 µM (PKN1) was 100% and the “% binding” value (CDK8) was 68%. For the same molecule, the remaining binding at 1 µM (BRSK2) was 91%, the “% binding” value (BMPR2) was 99% and the remaining binding at 1 µM (p38-gamma) was 76%. The remaining binding at 1 µM (SRMS) was 100%, the “% binding” value [2] was 100% and the “% binding” value (SYK) was 100%. The remaining binding at 1 µM (PRKD1) was 28%, the remaining binding at 1 µM (NIM1) was 99% and the remaining binding at 1 µM [3] was 100%. For the same molecule, the remaining binding at 1 µM (KIT(A829P)) was 100%, the remaining binding at 1 µM (TNIK) was 100% and the remaining binding at 1 µM (RAF1) was 86%. The “% binding” value (MST3) was 98%, the “% binding” value (EGFR(L858R.T790M)) was 100% and the remaining binding at 1 µM (MAP3K3) was 100%. The remaining binding at 1 µM (VRK2) was 79%, the “% binding” value (ACVR2B) was 100% and the remaining binding at 1 µM (TAOK2) was 100%. The remaining binding at 1 µM [4] was 95%, the remaining binding at 1 µM (PKN2) was 80% and the “% binding” value (PKMYT1) was 99%. For the same molecule, the remaining binding at 1 µM (CAMK1D) was 100% and the remaining binding at 1 µM (PRKG1) was 53%.
